Data as given in PMC8305076, “Comprehensive Evaluation of Biological Effects of Pentathiepins on Various Human Cancer Cell Lines and Insights into Their Mode of Action” (International Journal of Molecular Sciences, 2021).
Read-outs that look alike come from different tables or passages of the source.

Legend:
Type in all cases: cell-based, human
MCF-7 = assay: crystal violet proliferation assay; conditions: normoxia, read-out: GI50 CV mean
Protocol: Distinct MTT cell viability and crystal violet cell proliferation assays were performed to assess the cytotoxicity of the compounds 1–6 on 14 human cancer cell lines. In the viability assay, cells with intact mitochondria and thus active dehydrogenases are competent to convert MTT to the corresponding insoluble formazan. The formazan can be photometrically detected after solubilization and allows for indirect conclusions about the viability of the cells as an IC50 value. In the crystal violet assay, cells are stained by the binding of the dye to the chromatin, thus allowing for a quantification of biomass that remains adherent after a treatment in comparison with a control after a specific time. Potency is defined as the growth inhibitory concentration 50% (GI50).
The antiproliferative effect of the pentathiepins on human cancer cell lines was analyzed by crystal violet assay based on the protocol of a previous publication. […] After dissolving in ethanol, the optical density was measured. Here, 1000 cells (250 for LCLC-103H) in 0.1 mL of medium were seeded per well of a 96 well plate and incubated at standard conditions for 24 h prior to treatment to allow for adhesion of the cells. A serial dilution of the test compounds was prepared in medium, covering final concentrations from 10.0 to 0.04 µM and 0.1 mL of the working solution added to each well in triplicate. Additionally, samples for each cell line were seeded and directly fixed after 24 h to measure the cell density at the beginning of treatment (t0). Fixation was performed by replacing medium with 0.1 mL of a solution containing 1% glutaraldehyde in Dulbecco’s buffer (0.2 g/L KCl, 0.1 g/L MgSO4·7 H2O, 1.55 g/L Na2HPO4·7 H2O, 0.2 g/L KH2HPO4, and 8 g/L NaCl in water) for 20 min. Plates were stored in 0.1 mL of Dulbecco’s buffer until further processing. After 96 h of treatment, the same fixation process was applied to the plates containing cells and test compounds. To stain the cells, 0.1 mL of an aqueous solution of crystal violet (0.02%) was added per well for 20 min, then discarded and the plates afterwards rinsed in clear water for 30 min. The dye was extracted in 50 µL of ethanol per well during 2 h of shaking. The plates were read at λ = 570 nm using a SpectraMax 384plus (Molecular Devices, Sunnyvale, CA, USA), and the proliferation of the treatment conditions was calculated in relation to a solvent control sample after subtracting the background value of the T0-plates. The GI50 (half-maximal growth inhibitory concentration) was calculated via nonlinear regression followed by interpolation of the dose–response graphs in Prism 7 (GraphPad, San Diego, CA, USA).

[1] = test system: HAP-1, HAP-1.KO.GPx1, A2780, and Siso; assay: apoptosis (summary); set-up: key: no impact (0); weak impact (+); strong impact (++); conditions: summary grade
Protocol: As reported in our earlier publication, a representative pentathiepin was capable of inducing apoptosis in cancer cell lines. Here, we tested compounds 1–6 for their ability to trigger this particular modality of cell death in a subset of four cell lines: HAP-1, HAP-1.KO.GPx1, A2780, and Siso. A flow cytometric assay was performed, allowing us to discriminate between viable, early, and late apoptotic cells (representative dot plots can be found in Figure S47). FITC-labeled annexin V was used to assess the externalization of phosphatidyl serine as a hallmark of early apoptosis induction. The addition of propidium iodide (PI) enabled the detection of late apoptotic cells as it only permeates porous cell membranes and exerts fluorescence once bound to double-stranded DNA.
The annexin V-FITC/PI assay, which discriminates between viable, early, and late apoptotic cells within a sample population, was performed according to the manufacturer’s instructions (Miltenyi Biotec, Teterow, Germany). Briefly, 125,000 cells were seeded in 2 mL per well of a 6-well plate, allowed to adhere overnight, and subsequently treated with the respective pentathiepin (IC90, see Table S4) diluted in 3 mL of medium. After incubation periods of 6, 24, or 48 h, the cells were harvested, washed with the provided binding buffer, and stained with the annexin V-FITC reagent for 20 min at room temperature (RT) in the dark. After another washing step, the pellet was resuspended, and PI was added immediately before flow cytometric measurement at λEx/Em = 488/525 ± 50 nm for FITC and λEx/Em = 488/655–730 nm for PI with the MACSquant Analyzer 10 (Miltenyi Biotec, Teterow, Germany).

[2] = test system: HAP-1, HAP-1.KO.GPx1, Siso and A2780 cells; assay: cellular morphology after 24 h; set-up: key: no impact (0); weak impact (+); strong impact (++); conditions: summary grade
Source text: All new pentathiepins induced apoptosis, although to different extents and in a cell line-dependent manner. […] In the corresponding GPx1-knockout cell line, the effect of doxorubicin was higher (about 50%), whereas only two of the pentathiepins induced apoptosis, namely, 3 and 5. The fractions of early apoptotic cells were 34 and 15%, respectively, and the population of late apoptotic cells 6% for 3. In the ovarian carcinoma cell line A2780 the overall effects were marginal, but all compounds except 6 increased the percentage of early apoptotic cells to 6–14%, with 3 resulting in the highest amount. In the Siso cell line, pentathiepin 3 increased both the number of early and late apoptotic cells to about 20%, which exceeded the effects of doxorubicine (0.5 µM). These findings were further corroborated by the observation of morphological features such as membrane blebbing and cell shrinkage as particular hallmarks of apoptosis (Figure S51).
Figure S51: Representative images of cellular morphology after an incubation for 24 h with the respective pentathiepins 1-6 (IC90) or a corresponding volume of DMF as negative control in HAP-1, HAP-1.KO.GPx1, Siso and A2780 cells. Arrows denote membrane blebbing, dashed arrows label cell shrinkage.
(1 picture or pasted object on this page, not shown here)

CCOc1c2c(c3cnc4[nH]c(-c5ccc(OC)cc5)cc4n13)SSSSS2 [Compound 1, 11-Ethoxy-2-(4-methoxyphenyl)-3H-[1,2,3,4,5]pentathiepino[6′,7′:3,4]pyrrolo[1,2-a]pyrrolo[2,3-e]pyrazine]
GI50 (MCF-7; 96 h): 209 nM | GI50 (MCF-7; Homo sapiens, MCF7, 96 h): 210 nM | Apoptosis [1]: + | Morphological changes [2]: 0

CCOc1c2c(c3ccc(C(=O)N4CCCCC4)cn13)SSSSS2 [Compound 2, (6-Ethoxy-[1,2,3,4,5]pentathiepino[6,7-a]indolizin-9-yl)(piperidinyl)methanone]
GI50 (MCF-7; Homo sapiens, MCF7, 96 h): 384 nM | Apoptosis [1]: + | Morphological changes [2]: +

CCOc1c2c(c3ccc(C(=O)N4CCOCC4)cn13)SSSSS2 [Compound 3, (6-Ethoxy-[1,2,3,4,5]pentathiepino[6,7-a]indolizin-9-yl)(morpholino)methanone]
GI50 (MCF-7; Homo sapiens, MCF7, 96 h): 153 nM | Apoptosis [1]: ++ | Morphological changes [2]: ++

CCOc1c2c(c3ccc(C(=O)N(CC)CC)cn13)SSSSS2 [Compound 4, 6-Ethoxy-N,N’-diethyl-[1,2,3,4,5]pentathiepino[6,7-a]indolizine-9-carboxamide]
GI50 (MCF-7; Homo sapiens, MCF7, 96 h): 293 nM | Apoptosis [1]: + | Morphological changes [2]: ++

CCOc1c2c(c3ccc(C(=O)N4CCN(C(=O)c5ccc(F)cc5)CC4)cn13)SSSSS2 [Compound 5, (6-Ethoxy-[1,2,3,4,5]pentathiepino[6,7-a]indolizin-9-yl)(4-(4-fluorobenzoyl)piperazinyl)methanone]
GI50 (MCF-7; Homo sapiens, MCF7, 96 h): 248 nM | Apoptosis [1]: ++ | Morphological changes [2]: ++

CCOc1c2c(c3ccc(C(=O)N4CCN(S(=O)(=O)c5ccc(C)cc5)CC4)cn13)SSSSS2 [Compound 6, (6-Ethoxy-[1,2,3,4,5]pentathiepino[6,7-a]indolizin-9-yl)(4-tosylpiperazinyl)methanone]
GI50 (MCF-7; Homo sapiens, MCF7, 96 h): 458 nM | Apoptosis [1]: + | Morphological changes [2]: +
